Target: T1, norepinephrine transporter (NET) (Homo sapiens, UniProt P23975)
T1 construct: gene SLC6A2
Test: competitive inhibition of […]AF78 uptake in SK-N-SH cells ([…] against […]MIBG)
Format: cell-based

T1 sequence (P23975 whole entry): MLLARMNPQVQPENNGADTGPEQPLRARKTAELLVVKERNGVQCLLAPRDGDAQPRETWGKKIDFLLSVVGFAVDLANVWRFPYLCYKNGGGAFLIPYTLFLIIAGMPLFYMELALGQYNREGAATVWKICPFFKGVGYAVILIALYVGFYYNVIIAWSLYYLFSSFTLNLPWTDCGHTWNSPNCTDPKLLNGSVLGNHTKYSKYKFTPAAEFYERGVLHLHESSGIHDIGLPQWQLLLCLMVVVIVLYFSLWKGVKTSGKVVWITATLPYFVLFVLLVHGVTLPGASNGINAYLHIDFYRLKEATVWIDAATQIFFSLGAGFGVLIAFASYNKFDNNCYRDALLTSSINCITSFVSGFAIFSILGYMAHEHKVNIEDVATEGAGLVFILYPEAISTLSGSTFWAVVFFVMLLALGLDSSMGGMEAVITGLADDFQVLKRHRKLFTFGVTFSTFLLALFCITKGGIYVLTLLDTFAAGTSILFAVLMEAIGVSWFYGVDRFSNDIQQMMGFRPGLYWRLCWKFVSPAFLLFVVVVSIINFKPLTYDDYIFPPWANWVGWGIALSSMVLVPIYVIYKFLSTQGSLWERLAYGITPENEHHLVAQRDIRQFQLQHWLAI

In the case of N=C(N)NCCc1ccc(F)c(O)c1 [4F-MHPG, 4-[^18F]fluoro-3-hydroxyphenethylguanidine], the IC50 is reported as 850 ± 630 nM.
